Measured values from ChEMBL document CHEMBL6134901 (J Med Chem, 2025).
Converted amounts (≈) assume the structure as drawn. The source made the active and inactive calls. The rule behind the calls is not given here.

Assays:
[1] = Cytotoxicity against human HepG2 cells incubated for 24 hrs by XTT assay; format: toxicity, cell-based; details: read-out: LD50
[2] = Selectivity index, ratio of LD50 for cytotoxicity against human HepG2 cells to IC50 for antibacterial activity against Clostridium difficile ATTC43255 assessed as spore germination inhibition; format: toxicity, cell-based; details: read-out: Ratio LD50/IC50
[3] = system: Clostridioides difficile; test: Antibacterial activity against Clostridium difficile ATTC43255 assessed as spore germination inhibition at 45 uM incubated for 60 mins by spectrometry relative to control; format: functional; details: ATTC43255, 1 h
[4] = system: Clostridioides difficile; test: Antibacterial activity against Clostridium difficile ATTC43255 assessed as spore germination inhibition incubated for 60 mins by spectrometry; format: functional, organism-based; details: ATTC43255, 1 h
[5] = system: Clostridioides difficile; test: Antibacterial activity against Clostridium difficile ATTC43255 incubated for 24 to 48 hrs anaerobically by colony counting method; format: functional; details: time 24-48 hrs
[6] = system: Staphylococcus aureus; test: Antibacterial activity against Staphylococcus aureus NRS100; format: functional
[7] = system: Staphylococcus haemolyticus; test: Antibacterial activity against Staphylococcus haemolyticus ATCC 29970; format: functional
[8] = system: Staphylococcus aureus; test: Antibacterial activity against vancomycin-resistant Staphylococcus aureus VRS1 clinical isolate; format: functional
[9] = Binding affinity to bacterial pro-SleC assessed as dissociation constant by MST assay; set-up: species or system Bacteria
[10] = system: Enterococcus faecium; test: Antibacterial activity against vancomycin-resistant Enterococcus faecium 106 clinical isolate; format: functional
[11] = system: Escherichia coli; test: Antibacterial activity against Escherichia coli ATCC 25922; format: functional
[12] = system: Enterococcus faecium; test: Antibacterial activity against vancomycin-susceptible Enterococcus faecium 119-39A; format: functional
[13] = system: Eubacterium sp.; test: Antibacterial activity against Eubacterium sp. HM-178; format: functional
[14] = Binding affinity to bacterial GerS assessed as dissociation constant by MST assay; set-up: species or system Bacteria
[15] = system: Staphylococcus aureus; test: Antibacterial activity against Staphylococcus aureus NRS119; format: functional
[16] = system: Klebsiella aerogenes; test: Antibacterial activity against Enterobacter aerogenes ATCC 35029; format: functional
[17] = system: Bacillus cereus; test: Antibacterial activity against Bacillus cereus ATCC 13061; format: functional
[18] = system: Clostridioides difficile; test: Antibacterial activity against fidaxomicin-resistant Clostridium difficile RMA23691 clinical isolate; format: functional
[19] = system: Klebsiella pneumoniae; test: Antibacterial activity against Klebsiella pneumoniae ATCC 700603; format: functional
[20] = Binding affinity to N-terminal His-tagged full-length Clostridium difficile SleC extracted from Escherichia coli LOBSTR-RIL assessed as dissociation constant by MST assay; set-up: species or system Clostridioides difficile
[21] = system: Bifidobacterium longum; test: Antibacterial activity against Bifidobacterium longum HM-846; format: functional
[22] = Binding affinity to bacterial prepro-SleC assessed as dissociation constant by MST assay; set-up: species or system Bacteria
[23] = system: Bacteria; test: Binding affinity to bacterial pdaA assessed as dissociation constant by MST assay
[24] = Binding affinity to bacterial CspA assessed as dissociation constant by MST assay; set-up: species or system Bacteria
[25] = system: Staphylococcus epidermidis; test: Antibacterial activity against Staphylococcus epidermidis ATCC 35547; format: functional
[26] = system: Lactobacillus gasseri; test: Antibacterial activity against Lactobacillus gasseri HM-644; format: functional
[27] = system: Limosilactobacillus reuteri; test: Antibacterial activity against vancomycin-susceptible Lactobacillus reuteri HM-102 clinical isolate; format: functional
[28] = system: Fusobacterium nucleatum; test: Antibacterial activity against methicillin/oxacillin/tetracycline-resistant mecA-positive Fusobacterium nucleatum HM-992; format: functional
[29] = system: Pseudomonas aeruginosa; test: Antibacterial activity against Pseudomonas aeruginosa ATCC 27853; format: functional
[30] = system: Enterococcus faecalis; test: Antibacterial activity against Enterococcus faecalis ATCC 29212; format: functional
[31] = system: Bacteroides fragilis; test: Antibacterial activity against Bacteroides fragilis HM-709; format: functional
[32] = system: Veillonella; test: Antibacterial activity against Veillonella sp. HM-49; format: functional
[33] = system: Clostridioides difficile; test: Antibacterial activity against Clostridium difficile RMA23828; format: functional
[34] = system: Acinetobacter baumannii; test: Antibacterial activity against Acinetobacter baumannii ATCC 17961; format: functional
[35] = Binding affinity to bacterial CspB assessed as dissociation constant by MST assay; set-up: species or system Bacteria
[36] = system: Clostridioides difficile; test: Antibacterial activity against metronidazole-resistant Clostridium difficile […] clinical isolate; format: functional
[37] = system: Clostridioides difficile; test: Antibacterial activity against Clostridium difficile RMA26675; format: functional
[38] = system: Staphylococcus aureus; test: Antibacterial activity against Staphylococcus aureus ATCC 29213; format: functional
[39] = system: Bacteria; test: Binding affinity to bacterial cwID assessed as dissociation constant by MST assay

Q: What does the source list for `Cl.NCc1ccc(-c2nc(-c3ccc(I)cc3)no2)cc1`?
A: CC50 at 24 h [1]: 39 µg/mL; selectivity ratio [2]: 3; inhibition at 45 µM [3]: 51%; IC50 [4]: 37 µM; MIC [5]: 8 µg/mL

Q: Which MIC [6] does the source give for `Oc1ccc(-c2nc(-c3ccc(OC4CCCC4)cc3)no2)cc1` here?
A: 2 µg/mL (≈ 6.2 µM)

Q: And the MIC [7]?
A: 2 µg/mL (≈ 6.2 µM)

Q: What about the MIC [8] of the same compound?
A: 2 µg/mL (≈ 6.2 µM)

Q: What about the Kd [9] of the same compound?
A: 91 µM

Q: And the CC50 at 24 h [1]?
A: 22 µg/mL (≈ 68.2 µM)

Q: And the MIC [10]?
A: 2 µg/mL (≈ 6.2 µM)

Q: What about the MIC [11] of the same compound?
A: > 128 µg/mL

Q: What about the MIC [12] of the same compound?
A: 2 µg/mL (≈ 6.2 µM)

Q: What about the MIC [13] of the same compound?
A: 0.5 µg/mL (≈ 1.55 µM)

Q: And the Kd [14]?
A: > 200 µM

Q: What about the MIC [15] of the same compound?
A: 2 µg/mL (≈ 6.2 µM)

Q: What about the MIC [16] of the same compound?
A: > 128 µg/mL

Q: And the MIC [17]?
A: 2 µg/mL (≈ 6.2 µM)

Q: And the MIC [18]?
A: 4 µg/mL (≈ 12.4 µM)

Q: And the MIC [19]?
A: > 128 µg/mL

Q: And the Kd [20]?
A: > 200 µM

Q: And the MIC [21]?
A: 1 µg/mL (≈ 3.1 µM)

Q: What about the Kd [22] of the same compound?
A: 4.3 µM

Q: What about the Activity [23] of the same compound?
A: inactive

Q: What about the Kd [24] of the same compound?
A: > 200 µM

Q: And the MIC [25]?
A: 2 µg/mL (≈ 6.2 µM)

Q: And the MIC [26]?
A: > 128 µg/mL

Q: And the MIC [27]?
A: > 128 µg/mL

Q: And the MIC [28]?
A: 2 µg/mL (≈ 6.2 µM)

Q: What about the MIC [29] of the same compound?
A: > 128 µg/mL

Q: What about the inhibition at 45 µM [3] of the same compound?
A: 26%

Q: And the MIC [30]?
A: 4 µg/mL (≈ 12.4 µM)

Q: What about the MIC [31] of the same compound?
A: 2 µg/mL (≈ 6.2 µM)

Q: What about the IC50 [4] of the same compound?
A: 74 µM

Q: And the MIC [32]?
A: > 128 µg/mL

Q: What about the MIC [33] of the same compound?
A: 4 µg/mL (≈ 12.4 µM)

Q: And the MIC [34]?
A: > 128 µg/mL

Q: What about the Kd [35] of the same compound?
A: 75 µM

Q: And the MIC [36]?
A: 2 µg/mL (≈ 6.2 µM)

Q: And the MIC [37]?
A: 4 µg/mL (≈ 12.4 µM)

Q: And the MIC [38]?
A: 2 µg/mL (≈ 6.2 µM)

Q: What about the Activity [39] of the same compound?
A: inactive

Q: With `CN[C@H](CC(C)C)C(=O)N[C@H]1C(=O)N[C@@H](CC(N)=O)C(=O)N[C@H]2C(=O)N[C@H]3C(=O)N[C@H](C(=O)N[C@H](C(=O)O)c4cc(O)cc(O)c4-c4cc3ccc4O)[C@H](O)c3ccc(c(Cl)c3)Oc3cc2cc(c3O[C@@H]2O[C@H](CO)[C@@H](O)[C@H](O)[C@H]2O[C@H]2C[C@](C)(N)[C@H](O)[C@H](C)O2)Oc2ccc(cc2Cl)[C@H]1O` [VANCOMYCIN] as the compound, how does the MIC [8] read?
A: 64 µg/mL (≈ 44.2 µM)

Q: And the MIC [10]?
A: > 16 µg/mL

Q: And the MIC [11]?
A: > 128 µg/mL

Q: And the MIC [16]?
A: > 128 µg/mL

Q: And the MIC [19]?
A: > 128 µg/mL

Q: What about the MIC [21] of the same compound?
A: 0.25 µg/mL (≈ 0.173 µM)

Q: What about the MIC [27] of the same compound?
A: > 32 µg/mL

Q: And the MIC [28]?
A: 0.25 µg/mL (≈ 0.173 µM)

Q: What about the MIC [29] of the same compound?
A: > 128 µg/mL

Q: And the MIC [30]?
A: 2 µg/mL (≈ 1.38 µM)

Q: What about the MIC [31] of the same compound?
A: 16 µg/mL (≈ 11 µM)

Q: And the MIC [32]?
A: > 32 µg/mL

Q: And the MIC [33]?
A: 0.5 µg/mL (≈ 0.345 µM)

Q: What about the MIC [34] of the same compound?
A: > 128 µg/mL

Q: And the MIC [36]?
A: 0.25 µg/mL (≈ 0.173 µM)

Q: For `CC(C)Oc1ccc(-c2nc(-c3cccc4c3CC[C@@H]4NCCO)no2)cc1C#N.Cl` [OZANIMOD HYDROCHLORIDE], which CC50 at 24 h [1] is on record?
A: 46 µg/mL

Q: And the selectivity ratio [2]?
A: 3

Q: And the inhibition at 45 µM [3]?
A: 62%

Q: What about the IC50 [4] of the same compound?
A: 39 µM

Q: And the MIC [5]?
A: 64 µg/mL

Q: For `O=[N+]([O-])c1cc(-c2nc(-c3ccc(Oc4ccc(C(F)(F)F)cc4)cc3)no2)cnc1O`, which inhibition at 45 µM [3] is on record?
A: < 10%

Q: For `FC(F)(F)c1ccc(Oc2ccc(-c3noc(-c4cn[nH]c4)n3)cc2)cc1`, which inhibition at 45 µM [3] is on record?
A: < 10%

Q: For `FC(F)(F)c1ccc(Oc2ccc(-c3noc(-c4n[nH]cc4Br)n3)cc2)cc1`, which inhibition at 45 µM [3] is on record?
A: < 10%

Q: For `CC(C)Oc1ncc(-c2nc(-c3cccc4c3CCC4NCCC(=O)O)no2)cc1C#N` (configuration not stated), which inhibition at 45 µM [3] is on record?
A: < 10%

Q: With `Nc1cc(-c2nc(-c3ccc(Oc4ccc(C(F)(F)F)cc4)cc3)no2)cnc1O` as the compound, how does the inhibition at 45 µM [3] read?
A: < 10%

Q: Which inhibition at 45 µM [3] does the source give for `N[C@H]1CC[C@H](Oc2ccc(-c3noc(-c4ccc(O)cc4)n3)cc2)CC1` here?
A: < 10%

Q: For `NCCCCc1nc(-c2ccc(Oc3ccc(F)cc3)cc2)no1`, which inhibition at 45 µM [3] is on record?
A: < 10%

Q: Which inhibition at 45 µM [3] does the source give for `Oc1ccc(-c2nc(-c3ccc(OC4CC4)cc3)no2)cc1` here?
A: < 10%

Q: With `C[C@@H](N)c1nc(-c2ccc(OC3CCCC3)cc2)no1` as the compound, how does the inhibition at 45 µM [3] read?
A: < 10%

Q: For `CC(C)(C)OC(=O)NCc1ccc(-c2nc(-c3ccc(OC4CCCC4)cc3)no2)cc1`, which inhibition at 45 µM [3] is on record?
A: < 10%

Q: Which inhibition at 45 µM [3] does the source give for `Oc1ccc(-c2nc(-c3ccc4c(c3)OCO4)no2)cc1` here?
A: < 10%

Q: Which results are given for `Cl.NCc1ccc(-c2nc(-c3ccc(Oc4ccc(F)cc4)cc3)no2)cc1`?
A: CC50 at 24 h [1]: 38 µg/mL; selectivity ratio [2]: 2; inhibition at 45 µM [3]: 60%; IC50 [4]: 45 µM; MIC [5]: 16 µg/mL

Q: With `Oc1ccc(-c2nc(-c3ccc(Oc4ccc(C(F)(F)F)cc4)cc3)no2)cc1O` as the compound, how does the inhibition at 45 µM [3] read?
A: < 10%

Q: Which inhibition at 45 µM [3] does the source give for `CCOc1ccc(-c2noc(-c3ccc(O)cc3)n2)cc1` here?
A: < 10%

Q: Which inhibition at 45 µM [3] does the source give for `O=[N+]([O-])c1ccc(-c2nc(-c3ccc(OC4CCCC4)cc3)no2)cc1` here?
A: < 10%

Q: For `NCCc1ccc(Oc2cc(-c3noc(-c4ccc(CN)cc4)n3)ccn2)cc1`, which inhibition at 45 µM [3] is on record?
A: 27%

Q: For `NCc1ccc(-c2nc(-c3ccc(CN4CCCC4)cc3)no2)cc1`, which inhibition at 45 µM [3] is on record?
A: < 10%

Q: Which inhibition at 45 µM [3] does the source give for `COC(OC)c1ccc(-c2noc(-c3ccc(O)cc3)n2)cc1` here?
A: < 10%

Q: For `NCc1ccc(-c2nc(-c3ccc(OC4CC4)cc3)no2)cc1`, which inhibition at 45 µM [3] is on record?
A: 12%

Q: For `Cc1c(Cl)c(C)[n+]([O-])c(Cl)c1-c1noc(-c2cc(O)c(O)c([N+](=O)[O-])c2)n1` [OPICAPONE], which inhibition at 45 µM [3] is on record?
A: < 10%

Q: With `FC(F)(F)c1ccc(Oc2ccc(-c3noc(-c4n[nH]cc4I)n3)cc2)cc1` as the compound, how does the inhibition at 45 µM [3] read?
A: < 10%
